Test results taken from patent US9701711B2, “Modulators of protease activated receptors” (THE UNIVERSITY OF QUEENSLAND, priority 2010, dated 2017).

Key:
[1] = target: T1, PAR2 (Homo sapiens, UniProt P55085); details: cited from earlier work
T1 sequence (P55085 26-397): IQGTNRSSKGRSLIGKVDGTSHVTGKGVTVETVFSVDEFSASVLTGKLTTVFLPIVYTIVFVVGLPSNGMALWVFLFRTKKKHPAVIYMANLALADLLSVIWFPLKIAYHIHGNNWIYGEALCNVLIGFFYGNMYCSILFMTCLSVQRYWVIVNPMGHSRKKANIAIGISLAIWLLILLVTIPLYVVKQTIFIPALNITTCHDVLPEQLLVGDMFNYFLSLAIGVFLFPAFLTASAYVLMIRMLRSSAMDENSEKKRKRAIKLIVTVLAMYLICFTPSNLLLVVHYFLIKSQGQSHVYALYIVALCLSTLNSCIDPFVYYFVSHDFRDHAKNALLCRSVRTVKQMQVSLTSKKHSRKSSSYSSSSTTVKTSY

[2] = target: T2, PAR2 (Rattus norvegicus, UniProt Q63645); test: Acute inflammatory model: PAR2-induced paw oedema; format: in vivo; details: Wistar rat, 10 mg/kg p.o. in olive oil, n=3; agonist 350 μg/paw 2 h after oral dose
T2 construct: from tissue; host or cells: paw of living male Wistar rats
T2 sequence (Q63645 26-397): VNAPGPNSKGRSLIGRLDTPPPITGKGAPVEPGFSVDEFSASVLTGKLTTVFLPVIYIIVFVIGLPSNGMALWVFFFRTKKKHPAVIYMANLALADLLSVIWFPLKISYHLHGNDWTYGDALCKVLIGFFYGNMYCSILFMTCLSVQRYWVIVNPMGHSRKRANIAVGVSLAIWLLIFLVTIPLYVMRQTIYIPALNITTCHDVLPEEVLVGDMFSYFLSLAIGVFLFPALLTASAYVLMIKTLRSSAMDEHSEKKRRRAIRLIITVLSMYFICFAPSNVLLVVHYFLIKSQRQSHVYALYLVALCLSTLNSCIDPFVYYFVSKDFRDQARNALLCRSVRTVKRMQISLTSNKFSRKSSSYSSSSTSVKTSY
Description: FIG. 9. Graphical representation of the ability of PAR2 antagonists 18, 30, 42, 44 to attenuate experimental paw oedema.
The methods used are based on those previously described (Kelso. E. B., et al. Arthritis Rheum 2007, 56, 765-71; Kelso. E. B., et al. J Pharmacol Exp Ther 2006, 316, 1017-24; and Vergnolle, N. J Immunol 1999, 163, 5064-9). Male Wistar rats (n=3 per group) are used. Briefly, rats are given either 5 or 10 mg/kg of a compound of the present invention (p.o. via gavage in olive oil, approx. 500 μL, weight adjusted). Control animals receive only olive oil (500 μL p.o.). Two hours later, the PAR2 agonist 2-furoyl-LIGRLO (350 μg/paw in saline, 100 μL) is injected into the plantar surface (i.pl.) of the right paw pad using a 30 G needle. The left paw acts as a control, receiving saline only. Paw thickness and width are measured after 30 minutes and hourly using digital calipers (World Precision Instruments, USA) and swelling is calculated in area (mm^2; thickness multiplied by width) and expressed as a percentage change from baseline of each individual paw. Results for exemplary PAR2 ligands 18, 30, 42 and 44 are illustrated in FIG. 9.

[3] = Stability in rat liver homogenate; format: in vitro ADME; details: 10 μM, 37° C., up to 180 minutes
Description: Blood and liver is collected form non-drug dosed male and female Wistar rats (aged 8-9 weeks, 200-250 g and 250-300 g respectively). Bloods are centrifuged at 8 K rpm for 5 min. Plasma are pooled and stored at −80° C. for later use. The rat livers are homogenized, diluted with three volumes of PBS, cloth filtered. The filtrate is used directly for stability studies.
Lach compound is dissolved in DMSO to make […] stock solution. 10 μL of the stock is diluted with either rat plasma or liver homogenate (490 μL) to make up a starting concentration of 10 μM (triplicates). The mixtures are vortexed and incubated at 37° C. At each time point of 0, 30, 60 and 180 minutes. 100 μL of the mixture is taken and diluted with 300 μL of acetonitrile. The mixture is vortexed and centrifuged, 350 μL of the liquid is transferred into a microfuge tube and concentrated using a rotational vacuum concentrator (Christ Beta-RVC, supplied by Quantum Scientific). 100 μL of acetonitrile water (9:1, v/v) is added to the residue, vortexed and immediately analysed by LCMS/MS. Data from these experiments are expressed as percent of peak area recorded from the LCMS/MS trace at time zero (t0).

[4] = target: T1, PAR2; test: PAR2 agonist inhibition (antagonism) by intracellular Ca2+ release in HT29 cells; format: cell-based; parameters: Agonists of Ca^2+ release in HT29 cells; endogenous in cells; host or cells: HT29 (human cell line, cultured per ATCC information); details: HT29 cells; 30 min pre-incubation, then PAR2 agonist (1 μM 2f-LIGRLO-NH2); read-out: IC50, inhibition of Ca2+ release in HT29 cells
Description: The ability of the compounds of the present invention to activate PAR2 may be assessed via calcium mobilisation assays. It is appreciated that compounds that activate the release of intracellular calcium from one type of cell are agonists or partial agonists, while those that inhibit such release may be antagonists. […] The general assay protocols may vary slightly depending on the chosen cell line. In general, during cell culture passage, cell dissociation solution (CDS, Sigma Aldrich) is used to replace trypsin to dissociate cells from surface. Lipopolysaccharide (LPS) and trypsin are purchased from Sigma Aldrich. […] ELISA sets are purchased from BD Pharmingen (San Jose, Calif.) and cytokine array kits are purchased from RayBiotecho (Norcross, Ga.).
Cells are seeded overnight in 96-well black walled, clear bottomed, plate at approximately 2×10^4 to 4×10^5 cells per well. […] The cells are then washed twice with HBSS and transferred to a Polarstar spectrotluorimeter (BMG, Durham N.C.).
The cells are prepared as outlined above then treated with the “putative” antagonist 30 min prior to the addition of either trypsin or a synthetic agonist at a concentration equal to the agonists ED80.
The cells were then treated with 1 μM of the PAR2 agonist 2f-LIGRLO-NH2 (FIG. 2A. n=5) or 100 nM Trypsin (FIG. 2B, n=1). Each data point represents mean±SEM. Net changes in fluorescence were calculated as a percentage relative to the maximum response given 1 μM 2f-LIGRLO-NH2 or 100 nM Trypsin. Changes in fluorescence (% response) were plotted against logarithmic compound concentrations. The half maximal inhibitory concentration (IC50) values were derived from the dose response curve using a nonlinear regression curve in Graphpad Prism v5.

| Compound | Selectivity for PAR2 over PAR1 [1] | Agonist potency relative to SLIGRL-NH2 ([1]; higher agonist potency than SLIGRL-NH2) | Paw swelling induced by 2-f-LIGRLO-NH2 [2] | Stability in rat liver homogenate [3] | IC50 [4] |
| --- | --- | --- | --- | --- | --- |
| 2-furoyl-LIGRL-NH2 | selective for PAR2 over PAR1 | ~20 fold | – | – | – |
| CC[C@H](C)[C@H](NC(=O)[C@H](CC1CCCCC1)NC(=O)c1ccno1)C(=O)NCc1ccccc1OC [Compound 18, 5-isoxazoyl-Cha-Ile-aminomethyl-(2-methoxy)phenyl] | – | – | reduced the paw swelling | decomposed to varied degree | 0.5 ± 0.1 µM |
| CC[C@H](C)[C@H](NC(=O)[C@H](CC1CCCCC1)NC(=O)c1ccno1)C(=O)N1CCC(c2ccccc2)CC1 [Compound 30, 5-isoxazoyl-Cha-Ile-(4-phenyl)piperidine] | – | – | reduced the paw swelling | decomposed to varied degree | – |
| CC[C@H](C)[C@H](NC(=O)[C@H](CC1CCCCC1)NC(=O)c1cc(N)no1)C(=O)N1CCC2(C=Cc3ccccc32)CC1 [Compound 42, 5-(3-amino-isoxazoyl)-Cha-Ile-spiro[indene-1,4′-piperidine]] | – | – | reduced the paw swelling | decomposed to varied degree | – |
| CO[C@H](C)[C@H](NC(=O)[C@H](CC1CCCCC1)NC(=O)c1ccno1)C(=O)N1CCC2(C=Cc3ccccc32)CC1 [Compound 44, 5-isoxazoyl-Cha-Thr(Me)-spiro[indene-1,4′-piperidine]] | – | – | reduced the paw swelling | decomposed to varied degree | 1 µM |
